Measurements taken from US6054450A, “Hair-care cosmetic compositions having dandruff formation-suppressing effect” (Pacific Corporation, priority 1997, dated 2000).

Experiments:
[1] = cited from earlier work
[2] = cited from earlier work; for Acute Oral LD50: rats
[3] = system: Pityrosporum ovlae; test: Antibacterial activity against Pityrosporum ovlae (general statement); assay type: cell-based
[4] = Stability of iodopropynyl butylcarbamate to temperature and pH; details: 70~80° C. and pH 4~10
[5] = Solubility; assay type: physicochemical

Compound | solubility in ethanol ([1]; ethanol) | solubility in water at 25° C. ([1]; water, 25° C.) | solubility ([1]; water, ethanol and most common organic solvents such as ethylene glycol, diethyl ether and isopropanol) | Acute Oral LD50 [2] | safety and toxicity compared with zinc pyrithione ([2]; compared with zinc pyrithione) | MIC [3] | antibacterial action [3] | stability [4] | solubility in alcohols or glycol derivatives ([5]; alcohols or glycol derivatives) | solubility in ionic or non-ionic surfactants ([5]; ionic or non-ionic surfactants) | solubility in water ([5]; water)
[O-]n1ccccc1=S.[O-]n1ccccc1=S.[Zn+2] [zinc pyrithione, zinc salt of 1-hydroxy-2(1H) pyridinethione] | 310 ppm | about 15 ppm | substantially insoluble | 354 mg/kg |  |  |  |  |  |  | 
CCCCNC(=O)OCC#CI [iodopropynyl butylcarbamate] |  |  |  | 1470 mg/kg | very advantageous over zinc pyrithione | very low | very strong | very stable | high solubility | good solubility | low solubility
